Test results: patent US11161824B2, “Heterocyclic lipoxin analogs and uses thereof” (University College Dublin, National University of Ireland, …, priority 2016, dated 2021)

How the values were obtained:
NFkB [1] = assay: LPS-induced NFkB-driven luciferase activity in THP-1 LUCIA monocytes; format: cell-based; conditions: for reduction of LPS-induced NFkB luciferase activity: 30 min pre-treatment, then 24 h with 50 ng/ml LPS, relative to LPS
Method: 1×10^5 THP-1 LUCIA monocytes were pre-treated for 30 min with native LXA4 1 (FIG. 1A), imidazole analogues 9 [(1R)-epimer (FIG. 1B) and (1S)-epimer (FIG. 1C)], vehicle or appropriate controls, at increasing doses ranging from 10^−12 M up to 10^−6 M. 10^8 HKLM was used as positive control for NFkB activation. After 24 h from stimulation with 50 ng/ml of LPS, supernatants were collected and NFkB-driven luciferase was measured. (d) Data are expressed as % Relative Luminescence Unit relative to LPS alone ±SEM (n=3), *=p<0.05, **=p<0.01, ***=p<0.001. Graphs display the statistical analysis of the tested compound vs LPS.
(§1) The experiments were based around a model which utilised 1×10^5/ml THP-1 monocytes stably expressing NFkB luciferase reporter gene (LUCIA).
(§2) Anti-inflammatory activity was assessed by testing 10 analogues (6 quinoxalines & 4 isoquinolines) in presence & absence of lipopolysaccharide (LPS). For each analogue, a dose-response from 10^−12 M up to 10^−6 M was performed. The vehicle control corresponded to 0.1% Ethanol. NFkB activator, Heat-Killed Listeria Monocytogenes (HKLM) (10^7 cells/ml), were used as positive control for luciferase induction. 10^−6 M Dexamethasone (Dex) was used as positive control for luciferase inhibition. […] Benzo-lipoxin A4 (BLX) was used as positive control for LXA4 analogues.
A 2-tailed, assuming unequal variance T-test analysis was performed on three independent experiments for each assay. P-values were considered significant when p<0.05. If p<0.05, then * or $; if p<0.01, then ** or $$ or ##; if p<0.001, then *** or $$$ or ###.
Cells were seeded in 96-well plates and pre-treated with increasing doses of LXA4, analogues or controls for 30 min, followed by 24 h of co-incubation with 50 ng/ml LPS. […] (*=statistical analysis vs LPS; $=statistical analysis vs LXA4)

Th1 cytokine release = assay: LPS-induced Th1 cytokine release from THP-1 LUCIA monocytes; format: cell-based; conditions: 10^-11, 10^-9 or 10^-7 M; 50 ng/ml LPS 24 h; IL1β, IL6, IL12p70, IFNγ, TNF-α as per figure
Method: FIG. 2A-2E are graphs showing imidazole-lipoxin analogues (1R)-9 and (1S)-9 reduce LPS-induced Th1 cytokine release. 1×10^5 THP-1 LUCIA monocytes were pre-treated for 30 min with […], 10^−9 M or 10^−7 M of LXA4 1 and imidazole-lipoxin analogues (1R)-9 and (1S)-9, vehicle or appropriate controls. After 24 h from stimulation with 50 ng/ml of LPS, supernatants were collected and […] (FIG. 2A), IL6 (FIG. 2B), IL12p70 (FIG. 2C), IFNγ (FIG. 2D), and TNF-α (FIG. 2E) levels were measured. Data are expressed as % cytokine secretion relative to LPS alone ±SEM (n=3), *=p<0.05, **=p<0.01, ***=p<0.001.
FIG. 6A-6C are graphs showing that quinoxaline-lipoxin analogue (1R)-CT-4-43 inhibits LPS-induced Th1 cytokine release. 1×10^5 THP-1 LUCIA monocytes were pre-treated for 30 min with […], 10^−9 M or 10^−7 M of LXA4 and quinoxaline-lipoxin analogue (1R)-CT-4-43, vehicle or appropriate controls. After 24 h from stimulation with 50 ng/ml of LPS, supernatants were collected and IL13 (FIG. 6A), IL6 (FIG. 6B), and IFNγ (FIG. 6C) levels were measured. Data are expressed as % cytokine secretion relative to LPS alone ±SEM (n=3), *=p<0.05, **=p<0.01, ***=p<0.001.
FIG. 9A-9C are graphs showing that the isoquinoline-lipoxin analogue RB3 inhibit LPS-induced Th1 cytokine release. 1×10^5 THP-1 LUCIA monocytes were pre-treated for 30 min with 10^−11 M, 10^−9 M or 10^−7 M of LXA4 and isoquinoline-lipoxin analogue (1R)-RB3, vehicle or appropriate controls. After 24 h from stimulation with 50 ng/ml of LPS, supernatants were collected and IL1β(FIG. 9A), IL6 (FIG. 9B), and IL12p70 (FIG. 9C) levels were measured. Data are expressed as % cytokine secretion relative to LPS alone ±SEM (n=3), *=p<0.05, **=p<0.01, ***=p<0.001.

NFkB [2] = assay: NFkB-driven luciferase activity in resting conditions (absence of LPS) in THP-1 LUCIA monocytes; format: cell-based; conditions: 10^-12 M to 10^-6 M, 24 h
Method: 1×10^5 THP-1 LUCIA monocytes were treated for 30 min with native (a) LXA4 1, its stable imidazole-lipoxin analogues (1R)-9 and (1S)-9, vehicle or appropriate controls, at increasing doses ranging from 10^−12 M up to 10^−6 M. After 24 h, supernatants were collected and NFkB-driven luciferase was measured. Data are expressed as % Relative Luminescence Unit relative to LPS alone ±SEM (n=3).
as §1, §2

[3] = test system: carrageenan-induced paw swelling; assay: Murine carrageenan-induced paw swelling; format: in vivo, C57Bl/6 mice; conditions: 45 ng/mouse i.p. 30 mins before intrapaw 1% carrageenan; 4-72 h
Method: CT4-43 attenuates carageenan-induced paw swelling—Mice [male C57Bl/6] were administered vehicle [0.01% EtOH] or CT4-4 [45 ng/mouse i.p] 30 mins before intrapaw injection of 1% carageenan. Paw swelling was monitored over time [4-72 h] using an external lever gauge [Kroeplin]. Data are presented as mean+/−SEM, n=3 mice/treatment group.

CCCCC[C@@H](O)c1nc2ccccc2nc1/C=C/[C@@H](O)[C@@H](O)CCCC(=O)OC [(1R)-CT4-43, Methyl (5S,6R,E)-5,6-dihydroxy-8-(3-((R)-1-hydroxyhexyl)quinoxalin-2-yl)oct-7-enoate]
reduction of LPS-induced NFkB luciferase activity (NFkB [1]; 1 nM): 38.2±8.2% | reduction of LPS-induced NFkB luciferase activity (NFkB [1]; 10 nM): 34.8±4.2% | effect on LPS-induced NFkB-driven luciferase activity (in words) (NFkB [1]; doses 10^-12 M to 10^-6 M, 50 ng/ml LPS, 24 h): attenuating | potency in reducing LPS-induced NFkB activity, comparison in words (NFkB [1]; versus LXA4 or other analogues): significantly more potent than LXA4 | effect on LPS-induced Th1 cytokine release (in words) (Th1 cytokine release): inhibits | NFkB-driven luciferase activity in resting conditions (in words) (NFkB [2]): does not elicit | effect on carrageenan-induced paw swelling (in words) [3]: attenuates
